# Laboratory results published in article PMC1762332, “Catalases Are NAD(P)H-Dependent Tellurite Reductases” (PLoS ONE, 2006).
# What was measured:
# [1] = biological target: T1, E. coli katG (HPI catalase) (Escherichia coli, UniProt P13029); test: in-gel tellurite reductase activity after native PAGE of E. coli extract; absent in katG mutant; assay type: biochemical; conditions: 1 mM K2TeO3, 1 mM NADH, 1 mM 2-mercaptoethanol, potassium phosphate pH 7, 37 °C, 12 h
# T1 construct: native enzyme in extract of E. coli (Top10 with pBAD vector), resolved on native gel; tetramer; band absent in katG mutant
# T1 sequence (P13029 whole entry): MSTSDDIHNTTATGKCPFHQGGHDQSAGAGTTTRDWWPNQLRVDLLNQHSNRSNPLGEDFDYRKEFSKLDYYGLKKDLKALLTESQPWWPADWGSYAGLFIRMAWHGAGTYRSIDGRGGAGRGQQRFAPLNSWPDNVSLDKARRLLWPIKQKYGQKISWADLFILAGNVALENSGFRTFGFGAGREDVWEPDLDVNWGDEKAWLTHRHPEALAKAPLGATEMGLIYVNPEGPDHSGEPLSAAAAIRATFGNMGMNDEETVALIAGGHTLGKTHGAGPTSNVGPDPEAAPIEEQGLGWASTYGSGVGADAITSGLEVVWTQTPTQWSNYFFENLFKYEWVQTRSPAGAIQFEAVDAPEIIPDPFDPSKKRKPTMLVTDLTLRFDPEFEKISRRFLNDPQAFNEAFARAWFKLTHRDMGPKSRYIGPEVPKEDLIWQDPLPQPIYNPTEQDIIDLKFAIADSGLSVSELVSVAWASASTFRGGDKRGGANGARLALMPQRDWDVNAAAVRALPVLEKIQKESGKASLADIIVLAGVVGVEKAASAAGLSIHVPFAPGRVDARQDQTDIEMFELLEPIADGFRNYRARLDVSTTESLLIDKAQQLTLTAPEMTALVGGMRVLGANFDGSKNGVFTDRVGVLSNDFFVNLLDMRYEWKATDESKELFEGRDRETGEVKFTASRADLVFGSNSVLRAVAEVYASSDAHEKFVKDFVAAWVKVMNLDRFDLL
# [2] = biological target: T2, S. epidermidis CH katA (catalase) (Staphylococcus epidermidis, UniProt Q2PUJ9); test: in-gel tellurite reductase activity after native PAGE of recombinant E. coli extract; assay type: biochemical; conditions: 1 mM K2TeO3, 1 mM NADH, 1 mM 2-mercaptoethanol, potassium phosphate pH 7, 37 °C, 12 h
# T2 construct: katA coding region (1,515 bp) in pBAD (plasmid pCAT), expressed in E. coli Top10, extract; about 60 kDa subunit; homolog of SE1016 of ATCC12228
# T2 sequence (Q2PUJ9 3-504): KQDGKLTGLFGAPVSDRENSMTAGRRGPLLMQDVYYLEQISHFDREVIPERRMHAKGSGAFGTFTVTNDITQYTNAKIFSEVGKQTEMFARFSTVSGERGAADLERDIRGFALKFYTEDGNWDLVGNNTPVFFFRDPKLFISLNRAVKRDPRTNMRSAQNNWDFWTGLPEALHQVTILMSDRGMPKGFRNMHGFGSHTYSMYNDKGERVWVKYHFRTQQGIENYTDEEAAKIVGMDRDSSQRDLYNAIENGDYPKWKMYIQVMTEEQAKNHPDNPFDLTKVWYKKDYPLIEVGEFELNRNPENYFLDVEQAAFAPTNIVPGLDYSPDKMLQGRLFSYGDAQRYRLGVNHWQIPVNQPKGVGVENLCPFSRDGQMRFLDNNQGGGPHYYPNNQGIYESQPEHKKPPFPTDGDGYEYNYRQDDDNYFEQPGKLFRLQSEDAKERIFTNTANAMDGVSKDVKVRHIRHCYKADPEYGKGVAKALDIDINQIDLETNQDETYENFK
compound,measurement,setting,value
O=[Te](O)O [tellurite],in-gel tellurite reductase activity after native PAGE of E. coli extract; absent,[1],a barely detectable tellurite reductase activity
same,in-gel tellurite reductase activity after native PAGE of recombinant E. coli ext,[2],tellurite reductase activities of catalase are expressed at more than-four fold higher levels
